Values quoted from earlier work as cited in US10293050B2, “Macrolide dosage forms” (Micell Technologies, Inc., priority 2010, dated 2019).

How the values were obtained:
[1] = not given; remark: listed apart in the source
[2] = not given; remark: listed apart in the source

protein binding: high protein binding
aqueous solubility [1]: poor aqueous solubility
bioavailability ([2]; Rapamune oral tablets or solution): < 14%
hepatic biotransformation ([2]; in vivo): extensive hepatic biotransformation
blood concentrations ([2]; once daily oral dosing, immunosuppressive dose 2 or 5 mg daily): 6 to 50 ng/mL
SMILES: CO[C@H]1C[C@@H]2CC[C@@H](C)[C@@](O)(O2)C(=O)C(=O)N2CCCC[C@H]2C(=O)O[C@H]([C@H](C)C[C@@H]2CC[C@@H](O)[C@H](OC)C2)CC(=O)[C@H](C)/C=C(\C)[C@@H](O)[C@@H](OC)C(=O)[C@H](C)C[C@H](C)/C=C/C=C/C=C/1C [Rapamycin]
